This series in a line: recombinant barcode read abundance after kanamycin selection (control-corrected) (log10(CPM+1)); higher = more efficient recombination; sequences stand for … in AGTGCAGAGAAAATCGGCCAGTTTTCTCTGCCTGCAGTCCGCATGCCGT…AGATTTATGCAGCGGACTGCCTTTCTCCCAAAGTGATAAACCGGACAGTATCATGGACCGGTTTTCCCGGTAATCCGTATTTGCAAGGTTGGTTTCACT; site = the 11-nt target. Summed up:
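Duplicate cultures were plated either on chloramphenicol/ampicillin LB agar, serving as control, or on chloramphenicol/ampicillin/kanamycin with 0.1 mM IPTG. These came from a pooled E. coli library co-electroporated with a donor plasmid, each member pairing a target with an IS621 bridge RNA target-binding loop. Recombination efficiency equals averaged, control-corrected counts per million of recombinant-junction barcodes. It is listed as log10(CPM+1).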

The source of these data is the supplement of paper PMC11208160.
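Also: IS621 recombinase and bridge RNA in Escherichia coli cells.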

Turning to “GAAAGGGCTTGGGTTCTAACCTGTTGCCT (site GAAAGGGCTAG)”, the “recombinant barcode read abundance (log10)” value was determined as 0.566.
For the sequence “GAAAGGGCTTGGGTTCTAACCTGTTGCCT (site GAAATGGCTAG)”, the “recombinant barcode read abundance (log10)” value came out at 0.0705.
As for “GAAATTCCTTGGGTTCTAACCTGTTGCCT (site GAAAATCCTAG)”, the “recombinant barcode read abundance (log10)” value came out at 0.148.
As for “GAAATTCCTTGGGTTCTAACCTGTTGCCT (site GAAACTCCTAG)”, the “recombinant barcode read abundance (log10)” value was determined as 0.266.
Turning to “GAAATTCCTTGGGTTCTAACCTGTTGCCT (site GAAAGTCCTAG)”, the “recombinant barcode read abundance (log10)” value turned out to be 0.132.
For the sequence “GAAATTCCTTGGGTTCTAACCTGTTGCCT (site GAAATTCCTAG)”, the “recombinant barcode read abundance (log10)” value was determined as 0.371.
For the sequence “GAACCTTCTTGGGTTCTAACCTGTTGCCT (site GAACCTTCTAG)”, the “recombinant barcode read abundance (log10)” value was 0.695.
As for “GAACCTTCTTGGGTTCTAACCTGTTGCCT (site GAACGATCTAG)”, the “recombinant barcode read abundance (log10)” value is 0.0234.
Next, “GAACGACCTTGGGTTCTAACCTGTTGCTT (site GAACGACCTAA)”: 0.613; “GAACGACCTTGGGTTCTAACCTGTTGCTT (site GAACGACCTCA)”: 0.0114; “GAACGCTCTTGGGTTCTAACCTGTTGCTT (site GAACGCTCTAA)”: 0.876.
Next, “GAACGCTCTTGGGTTCTAACCTGTTGCTT (site TGTAAGACTCT)”: 0.225.
For “GAACGGGCTTGGGTTCTAACCTGTTGCGG (site GAACGGGCTCC)”, the “recombinant barcode read abundance (log10)” value worked out at 1.33.
On to “GAACGGGCTTGGGTTCTAACCTGTTGCGG (site GGACGGGCTCT)”, for which the “recombinant barcode read abundance (log10)” value amounted to 0.12.
Turning to “GAAGCTCCTTGGGTTCTAACCTGTTGCGT (site GAAGCTCCTAC)”, the “recombinant barcode read abundance (log10)” value is 2.81.
Turning to “GAAGCTCCTTGGGTTCTAACCTGTTGCGT (site GAGGCTCCTAC)”, the “recombinant barcode read abundance (log10)” value is 0.581.
For the sequence “GAAGTAACTTGGGTTCTAACCTGTTGCCT (site GAAGTAACTAG)”, the “recombinant barcode read abundance (log10)” value came out at 1.18.
Next, “GAAGTAACTTGGGTTCTAACCTGTTGCCT (site GACGTAACTAG)”: 0.194.
“GAAGTAACTTGGGTTCTAACCTGTTGCCT (site GAGGTAACTAG)”: the “recombinant barcode read abundance (log10)” value came to 0.346.
For the sequence “GAAGTAACTTGGGTTCTAACCTGTTGCCT (site GATGTAACTAG)”, the “recombinant barcode read abundance (log10)” value was 0.0965.
“GAATATTCTTGGGTTCTAACCTGTTGCTT (site GAATATTCTAA)”: the “recombinant barcode read abundance (log10)” value came out at 0.206.
To “GAATATTCTTGGGTTCTAACCTGTTGCTT (site GAATGTTCTAA)” belongs 0.0342; to “GAATCTACTTGGGTTCTAACCTGTTGCCT (site GAATCTACTAG)”, 0.512; to “GAATCTACTTGGGTTCTAACCTGTTGCCT (site GCATCTACTAG)”, 0.195.
As to “GAATCTACTTGGGTTCTAACCTGTTGCCT (site GGATCTACTAG)”, the “recombinant barcode read abundance (log10)” value was 0.896.
To “GAATCTACTTGGGTTCTAACCTGTTGCCT (site GTATCTACTAG)” belongs 0.136.
For the sequence “GAATCTACTTGGGTTCTAACCTGTTGCTT (site GAATCTACTAA)”, the “recombinant barcode read abundance (log10)” value was found to be 0.095.
Next, “GAATCTACTTGGGTTCTAACCTGTTGCTT (site GACTCTACTAA)”: 0.0804; “GAATCTACTTGGGTTCTAACCTGTTGCTT (site GAGTCTACTAA)”: 0.122.
Consider “GAATCTACTTGGGTTCTAACCTGTTGCTT (site GATTCTACTAA)”, for which the “recombinant barcode read abundance (log10)” value was 0.00713.
With “GAATGGACTTGGGTTCTAACCTGTTGCGA (site CTCATATCTAA)”, the “recombinant barcode read abundance (log10)” value worked out at 0.0913.
Consider “GAATGGACTTGGGTTCTAACCTGTTGCGA (site GAATGGACTTC)”, for which the “recombinant barcode read abundance (log10)” value was found to be 2.45.
